Experimental data taken from patent US20250041439A1, “ANTIBODY-DRUG CONJUGATES” (SPIREA LIMITED, priority 2021, published 2025).
Read-outs that look alike come from different tables or passages of the source. Non-standard residues stand in square brackets, D forms with d. Residues, ends and D or L forms follow the SMILES beside them. *: point of attachment. Dolaproine = CO[C@@H]([C@@H]1CCCN1)[C@@H](C)C(=O)O; Dil = CC[C@H](C)[C@H](NC)[C@@H](CC(=O)O)OC; X1 = C[C@@H](N*)[C@@H](O)c1ccccc1; NMeV = CN[C@H](C(=O)O)C(C)C

Legend:
[1] = test system: JIMT-1 (Her2 Low, human breast carcinoma); test: CellTiter-Glo luminescence viability assay with MMAE ADC; assay type: cell-based; details: JIMT-1 cells, 96 hours, n = 3; read-out: IC50 (anti-proliferative effect)
Description: (§1) The CellTiter-Glo© luminescence viability assay was used to measure the inhibitory effect of the MMAE ADC prepared in Example 3 on cell growth.
(§2) Her2^High SK-BR-3 (human breast adenocarcinoma, ATCC® HTB-30, Manassas, VA, United States) were cultured in McCoy's 5A medium supplemented with 200 U/mL penicillin, 200 μg/mL streptomycin and 20% heat-inactivated fetal bovine serum. Her2^Low JIMT-1 (human breast carcinoma, ACC589, DSMZ, Braunschweig, Germany) were cultured in DMEM GlutaMax® medium supplemented with 200 U/mL penicillin, 200 μg/mL streptomycin and 10% heat-inactivated fetal bovine serum. Her2^Negative NCI-H520 (human lung squamous cell carcinoma, ATCC®-HTB-182) were cultured in RPMI medium supplemented with 200 U/mL penicillin, 200 μg/mL streptomycin and 10% heat-inactivated fetal bovine serum.
(§3) SK-BR-3, JIMT-1 and NCI-H520 cells were seeded in 96-well plates at a density of 5×10^3, 2×10^3 and 2.5×10^3 cells in 100 μL growth medium, respectively, and incubated for 24 hours at 37° C./5% CO2.
(§4) After 96 hours in the presence of ADCs or controls, viability was detected using the CellTiter-Glo® luminescence assay. Assay plates were equilibrated at room temperature for 20 minutes before addition of 100 μL CellTiter-Glo® reagent per well. The plates were then mixed for 3 minutes at 300 rpm to assist cell lysis and incubated for a further 20 minutes at room temperature to stabilise the luminescence signal. Luminescence was recorded using a SpectraMax i3x plate reader with a default integration time of 0.5 s/well.

[2] = test system: NCI-H520 (Her2 Negative, human lung squamous cell carcinoma); test: as above; assay type: cell-based; details: NCI-H520 cells, 96 hours, n = 3; read-out: IC50 (anti-proliferative effect)
Description: as §1, §2, §3, §4

[3] = test system: SK-BR-3 (Her2 High, human breast adenocarcinoma); test: as above; assay type: cell-based; details: SK-BR-3 cells, 96 hours, n = 3; read-out: IC50 (anti-proliferative effect)
Description: as §1, §2, §3, §4

[4] = test system: SK-BR-3 cells (HER2 High, human breast adenocarcinoma); test: CellTiter-Glo luminescence viability assay with SN-38 ADCs; assay type: cell-based; details: n = 3, read-out: SK-BR-3 IC50 Mean (±St. Dev.)
Description: The plates were then mixed for 3 minutes at 300 rpm to assist cell lysis and incubated for a further 20 minutes at room temperature to stabilise the luminescence signal.

[5] = test system: NCI-N87 human gastric cancer CDX model; assay type: in vivo; details: 3 mg/kg IV single dose, PG-D42
Description: The objective of this study was to evaluate the in vivo anti-tumour efficacy of the MMAE ADC of Example 3 in the subcutaneous NCI-N87 human gastric cancer CDX model in female BALB/c Nude mice.
• Species: Mus musculus • Strain: BALB/c Nude • Age: 6-8 weeks • Sex: female • Body weight: 18-22 g
The NCI-N87 tumor cells (ATCC, Manassas, VA, cat #CRL-5822) were maintained in vitro as a monolayer culture in RPMI-1640 medium supplemented with 10% fetal bovine serum, 1% Antibiotic-Antimycotic, at 37° C. in an atmosphere of 5% CO2 in air. The tumour cells were routinely subcultured twice weekly by trypsin-EDTA treatment. The cells growing in an exponential growth phase were harvested and counted for tumour inoculation.
Each mouse for efficacy study was inoculated subcutaneously at the right flank with NCI-N87 tumour cells (10×10^6) in 0.2 mL of PBS supplemented with Matrigel (1:1) for tumour development. Treatments were started on day 6 after tumour inoculation when the average tumour size reached approximately 198 mm^3. […]
All the procedures related to animal handling, care and the treatment in the study were performed according to the guidelines approved by the Institutional Animal Care and Use Committee (IACUC) of the CRO following the guidance of the Association for Assessment and Accreditation of Laboratory Animal Care (AAALAC). At the time of routine monitoring, the animals were daily checked for any effects of tumour growth and treatments on normal behaviour such as mobility, food and water consumption (by looking only), body weight gain/loss (body weights were measured twice weekly), eye/hair matting and any other abnormal effect as stated in the protocol. Death and observed clinical signs were recorded on the basis of the numbers of animals within each subset.
The major endpoint was to see if the tumour growth could be delayed or mice could be cured. Tumour size was measured twice weekly in two dimensions using a calliper, and the volume was expressed in mm^3 using the formula: V=0.5a×b^2 where a and b are the long and short diameters of the tumour, respectively. […]

## CC[C@H](C)[C@@H]([C@@H](CC(=O)N1CCC[C@H]1[C@H](OC)[C@@H](C)C(=O)N[C@H](C)[C@@H](O)c1ccccc1)OC)N(C)C(=O)[C@@H](NC(=O)[C@@H](NC)C(C)C)C(C)C [MMAE, monomethyl auristatin E] (H-[NMeV]V[Dil][Dolaproine]-X1)
[1]
  IC50: 126 ± 53 pM
[2]
  IC50: 334 ± 114 pM
[3]
  IC50: 284 ± 138 pM

## CCc1c2c(nc3ccc(O)cc13)-c1cc3c(c(=O)n1C2)COC(=O)[C@]3(O)CC [SN-38]
[4]; 9 h exposure (limited), then further 96 hours
  IC50: 5780 ± 2010 pM
[4]; 96 h exposure (continuous)
  IC50: 1170 ± 90 pM

## T-DM1
[5]
  T/C: 29.37%
  TGI: 78.58%
  mean tumour volume: 574 mm^3
